Laboratory results published in ChEMBL document CHEMBL5729245, “Dioxinoquinoline compounds, preparation method and uses thereof” (2022).

Assays:
[1] = target: Hepatocyte growth factor receptor (Homo sapiens, UniProt P08581); assay: Assay of Small Molecular Compounds for Inhibiting the Activity of c-MET Kinase: The assay is based on the LANCE TR-FRET technology of Perkin Elmer Inc., and the assay method is as follows:1. Dilution of compounds: a total of 11 concentrations were obtained using a 3-fold gradient dilution from the highest concentration of 2500 nM (the maximum final concentration of the drug used in this assay was 2500 nM, and the minimum final concentration was 0.042 nM).2. 2.5 μL of the gradient-diluted compounds were taken with a transfer pipette to a 384-well plate.3. Addition of enzyme: 5 μL of 2× c-MET kinase solution (concentration was 2 nM) was taken with a transfer pipette to the corresponding reaction well of the 384-well plate, mixed well and pre-reacted at room temperature for 5 minutes.4. 2.5 μL 4× Ultra ULight™-JAK-1 (Tyr1023) Peptide (concentration was 400 nM)/ATP (concentration was 40 μM) mixture was taken with a transfer pipette to the corresponding reaction well of the 384-well plate.5. Negative control: 2.5 μL/well 4× substrate/ATP mixture and 7.5 μL 1× Kinase Assay Buffer were added to the wells of the 384-well plate.6. Positive control: 2.5 μL/well 4× substrate/ATP mixture, 2.5 μL/well 1× Kinase Assay Buffer containing 16% DMSO, and 5 µL/well 2× c-MET kinase solution were added to the 384-well plate. The final concentration of DMSO in the reaction system was 4%.7. The mixture was mixed well and then centrifuged and reacted at room temperature in dark for 60 min.8. Termination of the enzymatic reaction: 5 μL of 4× stop solution was taken with a transfer pipette to the wells of the 384-well plate, mixed and then centrifuged, and reacted at room temperature for 5 min.9. Development of the reaction: 5 μL of 4× detection solution was taken with a transfer pipette to the wells of the 384-well plate for color development, and the mixture was mixed and then centrifuged and reacted at room temperature for 60 min.10. The 384-well plate was placed into the Envision plate reader and the signal was detected using the appropriate program.11. Analysis and processing of the raw data:12. The drug concentrations and the corresponding inhibition rates were input into GraphPad Prism5 for calculation, and the inhibition rate of the compounds were calculated as follows: inhibition rate (%)=(reading of positive well−reading of experimental well)/(reading of positive control well−reading of negative control well)×100%. Processing with GraphPad Prism5 software yielded the corresponding IC50 values (the concentration of the compound at which 50% of the highest inhibition of the enzyme is achieved).
Chain of Hepatocyte growth factor receptor (P08581 whole entry): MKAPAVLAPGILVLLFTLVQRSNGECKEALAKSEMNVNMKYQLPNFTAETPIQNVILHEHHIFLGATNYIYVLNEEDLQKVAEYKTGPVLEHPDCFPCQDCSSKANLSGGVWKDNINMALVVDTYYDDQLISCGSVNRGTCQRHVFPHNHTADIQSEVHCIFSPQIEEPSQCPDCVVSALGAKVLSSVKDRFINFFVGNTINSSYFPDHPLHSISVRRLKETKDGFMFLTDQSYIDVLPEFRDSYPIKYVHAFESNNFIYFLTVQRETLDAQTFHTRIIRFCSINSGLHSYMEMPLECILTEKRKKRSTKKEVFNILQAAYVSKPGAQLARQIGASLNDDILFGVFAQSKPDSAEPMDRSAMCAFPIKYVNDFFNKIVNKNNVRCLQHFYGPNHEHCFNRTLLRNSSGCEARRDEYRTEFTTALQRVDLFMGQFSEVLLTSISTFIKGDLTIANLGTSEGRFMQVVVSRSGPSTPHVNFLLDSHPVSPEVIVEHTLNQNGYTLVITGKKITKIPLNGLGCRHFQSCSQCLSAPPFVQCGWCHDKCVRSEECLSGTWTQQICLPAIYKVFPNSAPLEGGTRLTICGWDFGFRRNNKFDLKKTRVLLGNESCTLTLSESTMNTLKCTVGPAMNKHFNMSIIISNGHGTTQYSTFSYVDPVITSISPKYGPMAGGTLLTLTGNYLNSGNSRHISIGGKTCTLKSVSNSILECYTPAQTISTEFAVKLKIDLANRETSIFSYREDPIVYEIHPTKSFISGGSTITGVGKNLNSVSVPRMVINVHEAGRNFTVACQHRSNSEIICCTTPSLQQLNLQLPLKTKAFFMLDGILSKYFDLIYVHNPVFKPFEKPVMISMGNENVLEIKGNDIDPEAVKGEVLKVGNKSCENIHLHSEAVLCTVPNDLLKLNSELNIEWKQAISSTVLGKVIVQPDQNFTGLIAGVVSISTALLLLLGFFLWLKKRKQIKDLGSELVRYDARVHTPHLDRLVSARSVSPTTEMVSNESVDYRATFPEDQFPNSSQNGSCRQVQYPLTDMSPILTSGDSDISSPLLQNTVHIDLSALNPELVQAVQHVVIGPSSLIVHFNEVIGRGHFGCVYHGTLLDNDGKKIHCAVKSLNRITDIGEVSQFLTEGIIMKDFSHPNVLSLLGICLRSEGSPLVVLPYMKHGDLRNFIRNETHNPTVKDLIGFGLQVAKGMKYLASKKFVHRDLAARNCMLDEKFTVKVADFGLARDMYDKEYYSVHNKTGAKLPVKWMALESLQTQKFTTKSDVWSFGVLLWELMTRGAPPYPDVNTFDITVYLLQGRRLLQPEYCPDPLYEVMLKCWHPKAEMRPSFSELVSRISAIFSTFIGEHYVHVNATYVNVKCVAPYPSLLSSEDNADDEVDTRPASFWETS

[2] = target: Vascular endothelial growth factor receptor 2 (Homo sapiens, UniProt P35968); assay: Assay of Small Molecular Compounds for Inhibiting the Activity of VEGFR-2 Kinase: The assay is based on the LANCE TR-FRET technology of Perkin Elmer Inc., and the assay method is as follows:1. Dilution of compounds: a total of 11 concentrations were obtained using a 3-fold gradient dilution from the highest concentration of 2500 nM (the maximum final concentration of the drug used in this assay was 2500 nM, and the minimum final concentration was 0.042 nM).2. 2.5 μL of the gradient-diluted compounds were taken with a transfer pipette to a 384-well plate.3. Addition of enzyme: 5 μL of 2× VEGFR-2 kinase solution (concentration was 0.5 nM) was taken with a transfer pipette to the corresponding reaction well of the 384-well plate, mixed well and pre-reacted at room temperature for 30 minutes.4. 2.5 μL 4× Ultra ULight™-JAK-1 (Tyr1023) Peptide (concentration was 200 nM)/ATP (concentration was 40 μM) mixture was taken with a transfer pipette to the corresponding reaction well of the 384-well plate.5. Negative control: 2.5 μL/well 4× substrate/ATP mixture and 7.5 μL 1× Kinase Assay Buffer were added to the wells of the 384-well plate.6. Positive control: 2.5 μL/well 4× substrate/ATP mixture, 2.5 μL/well 1× Kinase Assay Buffer containing 16% DMSO, and 5 μL/well 2× VEGFR-2 kinase solution were added to the 384-well plate. The final concentration of DMSO in the reaction system was 4%.7. The mixture was mixed well and then centrifuged and reacted at room temperature in dark for 60 min.8. Termination of the enzymatic reaction: 5 μL of 4× stop solution was taken with a transfer pipette to the wells of the 384-well plate, mixed and then centrifuged, and reacted at room temperature for 5 min.9. Development of the reaction: 5 μL of 4× detection solution was taken with a transfer pipette to the wells of the 384-well plate for color development, and the mixture was mixed and then centrifuged and reacted at room temperature for 60 min.10. The 384-well plate was placed into the Envision plate reader and the signal was detected using the appropriate program.11. Analysis and processing of the raw data:The drug concentrations and the corresponding inhibition rates were input into GraphPad Prism5 for calculation, and the inhibition rate of the compounds were calculated as follows: inhibition rate (%)=(reading of positive well−reading of experimental well)/(reading of positive control well−reading of negative control well)×100%. Processing with GraphPad Prism5 software yielded the corresponding IC50 values (the concentration of the compound at which 50% of the highest inhibition of the enzyme is achieved).
Chain of Vascular endothelial growth factor receptor 2 (P35968 whole entry): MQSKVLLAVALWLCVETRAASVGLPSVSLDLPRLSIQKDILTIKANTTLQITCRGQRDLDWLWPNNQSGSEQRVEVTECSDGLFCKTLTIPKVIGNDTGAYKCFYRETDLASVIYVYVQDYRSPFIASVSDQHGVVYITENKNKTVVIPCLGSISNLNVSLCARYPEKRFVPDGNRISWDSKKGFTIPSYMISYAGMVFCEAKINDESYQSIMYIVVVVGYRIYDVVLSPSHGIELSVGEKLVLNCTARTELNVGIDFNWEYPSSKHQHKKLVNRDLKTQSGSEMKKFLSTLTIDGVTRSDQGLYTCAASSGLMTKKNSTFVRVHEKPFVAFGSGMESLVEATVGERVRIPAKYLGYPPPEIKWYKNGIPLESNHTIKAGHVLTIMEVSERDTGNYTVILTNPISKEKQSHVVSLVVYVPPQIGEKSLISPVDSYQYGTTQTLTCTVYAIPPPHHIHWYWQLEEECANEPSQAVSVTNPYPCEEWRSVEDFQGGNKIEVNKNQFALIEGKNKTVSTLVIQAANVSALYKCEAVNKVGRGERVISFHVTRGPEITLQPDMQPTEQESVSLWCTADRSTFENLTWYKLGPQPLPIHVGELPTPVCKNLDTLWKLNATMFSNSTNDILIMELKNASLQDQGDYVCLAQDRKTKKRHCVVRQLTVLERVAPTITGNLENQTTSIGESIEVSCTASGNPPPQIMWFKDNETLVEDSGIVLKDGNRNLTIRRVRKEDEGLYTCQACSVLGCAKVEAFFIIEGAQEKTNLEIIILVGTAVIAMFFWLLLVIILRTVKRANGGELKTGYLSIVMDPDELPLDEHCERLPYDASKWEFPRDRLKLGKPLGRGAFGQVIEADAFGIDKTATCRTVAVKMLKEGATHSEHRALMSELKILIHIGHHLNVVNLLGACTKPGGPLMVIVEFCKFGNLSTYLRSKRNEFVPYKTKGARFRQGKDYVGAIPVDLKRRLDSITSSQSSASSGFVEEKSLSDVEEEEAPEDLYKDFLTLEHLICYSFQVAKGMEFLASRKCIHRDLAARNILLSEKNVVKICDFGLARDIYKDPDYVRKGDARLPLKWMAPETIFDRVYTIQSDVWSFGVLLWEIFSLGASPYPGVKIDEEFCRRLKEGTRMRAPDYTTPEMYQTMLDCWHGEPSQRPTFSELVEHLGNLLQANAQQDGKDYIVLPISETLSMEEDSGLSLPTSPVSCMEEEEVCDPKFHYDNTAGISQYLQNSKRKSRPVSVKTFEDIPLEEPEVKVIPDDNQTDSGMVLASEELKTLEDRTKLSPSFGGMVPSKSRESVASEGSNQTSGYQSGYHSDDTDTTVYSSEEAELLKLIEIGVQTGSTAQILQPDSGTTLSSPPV

SMILES | IC50 [1] [nM] | IC50 [2] [nM]
CN1CCN(CCCOc2cc3nccc(Oc4ccc(NC(=O)C5(C(=O)Nc6ccc(F)cc6)CC5)cc4F)c3c3c2OCCO3)CC1 | < 50 | < 50
COCCCOc1cc2nccc(Oc3ccc(NC(=O)C4(C(=O)Nc5ccc(F)cc5)CC4)cc3F)c2c2c1OCCO2 | < 50 | < 50
COc1cc2nccc(Oc3ccc(NC(=O)C4(C(=O)Nc5ccc(F)cc5)CC4)c(F)c3)c2c2c1OCCO2 | < 50 | < 50
CC1(C)CCN(CCCOc2cc3nccc(Oc4ccc(NC(=O)C5(C(=O)Nc6ccc(F)cc6)CC5)cc4F)c3c3c2OCCO3)CC1 | < 50 | < 50
CCOc1cc2nccc(Oc3ccc(NC(=O)C4(C(=O)Nc5ccc(F)cc5)CC4)cc3F)c2c2c1OCCO2 | < 50 | < 50
COc1cc2nccc(Oc3ccc(NC(=O)C4(C(=O)Nc5ccc(F)cc5)CC4)cc3F)c2c2c1OCCO2 | < 50 | < 50
O=C(Nc1ccc(F)cc1)C1(C(=O)Nc2ccc(Oc3ccnc4cc(OCCCN5CCOCC5)c5c(c34)OCCO5)cc2)CC1 | < 50 | < 50
COc1cc2nccc(Oc3ccc(NC(=O)C4(C(=O)Nc5ccc(F)cc5)CC4)cc3)c2c2c1OCCO2 | < 50 | < 50
N#CCCCOc1cc2nccc(Oc3ccc(NC(=O)C4(C(=O)Nc5ccc(F)cc5)CC4)cc3F)c2c2c1OCCO2 | < 50 | < 50
O=C(Nc1ccc(F)cc1)C1(C(=O)Nc2ccc(Oc3ccnc4cc(OCCCN5CCCCC5)c5c(c34)OCCO5)c(F)c2)CC1 | < 50 | < 50
COc1cc2nccc(Oc3cc(Cl)c(NC(=O)C4(C(=O)Nc5ccc(F)cc5)CC4)cc3F)c2c2c1OCCO2 | < 50 | > 5000
O=C(Nc1ccc(F)cc1)C1(C(=O)Nc2ccc(Oc3ccnc4cc(OCCO)c5c(c34)OCCO5)c(F)c2)CC1 | < 50 | < 50
O=C(Nc1ccc(F)cc1)C1(C(=O)Nc2ccc(Oc3ccnc4cc(OCCCN5CCCC5)c5c(c34)OCCO5)c(F)c2)CC1 | < 50 | < 50
O=C(Nc1ccc(F)cc1)C1(C(=O)Nc2ccc(Oc3ccnc4cc(OCCCN5CCOCC5)c5c(c34)OCCO5)c(Cl)c2)CC1 | < 50 | 
O=C(Nc1ccc(F)cc1)C1(C(=O)Nc2ccc(Oc3ccnc4cc(OC5CCOCC5)c5c(c34)OCCO5)c(F)c2)CC1 | < 50 | 
CN(C)CCCOc1cc2nccc(Oc3ccc(NC(=O)C4(C(=O)Nc5ccc(F)cc5)CC4)cc3F)c2c2c1OCCO2 | < 50 | < 50
CC(C)(O)COc1cc2nccc(Oc3ccc(NC(=O)C4(C(=O)Nc5ccc(F)cc5)CC4)cc3F)c2c2c1OCCO2 | < 50 | < 50

SMILES | IC50 [1] [nM] | IC50 [2] [nM]
COCCOc1cc2nccc(Oc3ccc(NC(=O)C4(C(=O)Nc5ccc(F)cc5)CC4)cc3F)c2c2c1OCCO2 | < 50 | < 50
O=C(Nc1ccc(F)cc1)C1(C(=O)Nc2ccc(Oc3ccnc4cc(OCCCN5CCOCC5)c5c(c34)OCCO5)cc2Cl)CC1 | < 50 | 
COCCN(C)CCCOc1cc2nccc(Oc3ccc(NC(=O)C4(C(=O)Nc5ccc(F)cc5)CC4)cc3F)c2c2c1OCCO2 | < 50 | < 50
O=C(Nc1ccc(F)cc1)C1(C(=O)Nc2ccc(Oc3ccnc4cc(OCCCO)c5c(c34)OCCO5)c(F)c2)CC1 | < 50 | < 50
O=C(Nc1ccc(F)cc1)C1(C(=O)Nc2ccc(Oc3ccnc4cc(OC5CCOC5)c5c(c34)OCCO5)c(F)c2)CC1 (stereo unspecified) | < 50 | < 50
O=C(Nc1ccc(F)cc1)C1(C(=O)Nc2ccc(Oc3ccnc4cc(OCCCN5CCOCC5)c5c(c34)OCCO5)c(F)c2)CC1 | < 50 | < 50
CN(C)CCCCCCOc1cc2nccc(Oc3ccc(NC(=O)C4(C(=O)Nc5ccc(F)cc5)CC4)cc3F)c2c2c1OCCO2 | < 50 | < 50
CC(C)Oc1cc2nccc(Oc3ccc(NC(=O)C4(C(=O)Nc5ccc(F)cc5)CC4)cc3F)c2c2c1OCCO2 | < 50 | 
N#CCOc1cc2nccc(Oc3ccc(NC(=O)C4(C(=O)Nc5ccc(F)cc5)CC4)cc3F)c2c2c1OCCO2 | < 50 | 
CN(CCCOc1cc2nccc(Oc3ccc(NC(=O)C4(C(=O)Nc5ccc(F)cc5)CC4)cc3F)c2c2c1OCCO2)C1CCC1 | < 50 | < 50
NC1(COc2cc3nccc(Oc4ccc(NC(=O)C5(C(=O)Nc6ccc(F)cc6)CC5)cc4F)c3c3c2OCCO3)CC1 | < 50 | < 50
CC1(O)CCN(CCCOc2cc3nccc(Oc4ccc(NC(=O)C5(C(=O)Nc6ccc(F)cc6)CC5)cc4F)c3c3c2OCCO3)CC1 | < 50 | < 50
O=C(Nc1ccc(F)cc1)C1(C(=O)Nc2ccc(Oc3ccnc4cc(OC5COC5)c5c(c34)OCCO5)c(F)c2)CC1 | < 50 | < 50
O=C(Nc1ccc(F)cc1)C1(C(=O)Nc2ccc(Oc3ccnc4cc(OCCCN5CCS(=O)(=O)CC5)c5c(c34)OCCO5)c(F)c2)CC1 | < 50 | < 50
CC1(N)CCN(CCCOc2cc3nccc(Oc4ccc(NC(=O)C5(C(=O)Nc6ccc(F)cc6)CC5)cc4F)c3c3c2OCCO3)CC1 | < 50 | < 50
O=C(Nc1ccc(F)cc1)C1(C(=O)Nc2ccc(Oc3ccnc4cc(OCCCN5CCOCC5)c5c(c34)OCCO5)cc2F)CC1 | < 50 | < 50
